Reference: USRE48461E1, “Modulation of androgen receptor expression” (Ionis Pharmaceuticals, Inc., priority 2012, dated 2021)

Columns and labels:
Assay type in all cases: cell-based, human
[1] = tested on: prostate-specific antigen (PSA) mRNA; experiment: Time-course PSA expression in C4-2B cells
Procedure: C4-2B cells were plated at 1,000 cells per well in complete medium. […] ISIS 549148 was included as a negative control. […] After a treatment period of 8 hours, 24 hours, and 48 hours, AR expression was measured with primer probe set hAR-LTS00943. Results are presented in Tables 70-72 as percent expression of AR, relative to non-treated cells.
Expression analysis of prostate-specific antigen (PSA) and TMPRSS2 were also analyzed. Results are presented in Tables 73-75 as percent inhibition of PSA expression and Tables 76-78 as percent inhibition of TMPRSS2 expression, relative to non-treated cells.

TMPRSS2 mRNA [2] = experiment: TMPRSS2 expression in LNCaP cells (complete, CSS+DHT medium); conditions: for Percent inhibition of TMPRSS2 expression in LNCaP cells cultured in CSS + DHT medium: CSS + DHT (1 nM) medium, 48 hrs; for Percent inhibition of TMPRSS2 expression in LNCaP cells cultured in complete medium: 48 hours
Procedure: Cells were plated at 1,000 cells per well. […] ISIS 549148 was included as a negative control. […] After an incubation period of 48 hours, RNA levels of AR, PSA and TMPRSS2 were measured.
Cells were plated at 2,000 cells per well and cultured in phenol red-free RPMI supplemented with 5% charcoal stripped serum (Gibco) media for 16 hours. […] ISIS 549148 was included as a negative control. […] After an incubation period of 4 hrs, DHT was added to the medium to a final concentration of 1 nM as indicated. RNAs were collected 48 hrs later and levels of AR, PSA and TMPRSS2 were measured. In the absence of DHT, AR expression in LNCaP cells was 95%, PSA expression was 7% and TMPRSS2 expression was 24% compared to the untreated control.

cleaved PARP = experiment: Cleaved PARP western blot in VCaP cells
C4-2B cells = experiment: C4-2B cell proliferation (complete or CSS+DHT medium; Example 30); conditions: 5 days; for Proliferation (% untreated control): C4-2B cells
Procedure: After a treatment period of 5 days in complete medium or CSS+1 nM DHT medium, the proliferative capacity of the cancer cells was measured with using CellTiter 96® AQueous One or CellTiter-Glo® Solution Cell Proliferation kit (Promega), following the manufacturer's instructions.

TMPRSS2 mRNA [3] = experiment: TMPRSS2 expression in VCaP cells; conditions: RNAiMax, 48 hrs
Procedure: (§1) Cells were plated at 10,000 cells per well. […] After an incubation period of 48 hrs, RNA levels of full length AR, the V7 variant, PSA and TMPRSS2 were measured.
(§2) After an incubation period of 48 hrs, RNA levels of full length AR, the V7 variant, PSA and TMPRSS2 were measured. The data is presented in Tables 108 expressed as percent expression of gene levels compared to the untreated control.
(§3) Cells were plated at 15,000 cells per well and cultured in CSS media for 16 hours. […] After 4 hrs, 1 nM DHT was added. […] After an incubation period of 48 hrs, RNA levels of AR, PSA and TMPRSS2 were measured.

TMPRSS2 mRNA [4] = experiment: TMPRSS2 expression in 22RV1 cells; conditions: RNAiMax, 48 hrs
Procedure: Cells were plated at 1,000 cells per well. […] After an incubation period of 48 hrs, RNA levels of full length AR, the V7 variant, PSA and TMPRSS2 were measured.
After an incubation period of 48 hrs, RNA levels of full length AR, the V7 variant, PSA and TMPRSS2 were measured.
Cells were plated at 2,000 cells per well and cultured in CSS media for 16 hours. […] After 4 hrs, 1 nM DHT was added. […] After an incubation period of 48 hrs, RNA levels of AR, AR V7 variant, PSA and TMPRSS2 were measured.

PSA mRNA = experiment: PSA expression in VCaP cells; conditions: RNAiMax, 48 hrs
Procedure: as §1, §2, §3

TMPRSS2 mRNA [5] = experiment: TMPRSS2 expression in C4-2B cells (Example 30); conditions: 48 hrs
Procedure: Cells were plated at 1,000 cells per well. […] ISIS 549148 was included as a negative control. […] After an incubation period of 48 hrs, RNA levels of AR, PSA and TMPRSS2 were measured.
Cells were plated at 2,000 cells per well and cultured in CSS media with 1 nM DHT. […] ISIS 549148 was included as a negative control. […] After an incubation period of 48 hrs, RNA levels of AR, PSA and TMPRSS2 were measured. In the absence of DHT, AR expression in C4-2 cells was 188%, PSA expression was 43% and TMPRSS2 expression was 27% compared to the untreated control.

Sequence: TTGATTTAATGGTTGC [ISIS 560131] (MOE and (S)-cEt gapmer chemistry, further chemistry not given here) [targets intron 1]
- Percent inhibition of PSA expression compared to the control group in 8 hours ([1]; 0.04 μM): 12%
- Percent inhibition of PSA expression compared to the control group in 24 hours ([1]; 0.04 μM): 27%
- Percent inhibition of PSA expression compared to the control group in 48 hours ([1]; 0.04 μM): 20%
- Percent inhibition of PSA expression compared to the control group in 8 hours ([1]; 0.2 μM): 0%
- Percent inhibition of PSA expression compared to the control group in 24 hours ([1]; 0.2 μM): 46%
- Percent inhibition of PSA expression compared to the control group in 48 hours ([1]; 0.2 μM): 61%
- Percent inhibition of PSA expression compared to the control group in 8 hours ([1]; 1 μM): 3%
- Percent inhibition of PSA expression compared to the control group in 24 hours ([1]; 1 μM): 56%
- Percent inhibition of PSA expression compared to the control group in 48 hours ([1]; 1 μM): 71%
- Percent inhibition of PSA expression compared to the control group in 8 hours ([1]; 5.0 μM): 1%
- Percent inhibition of PSA expression compared to the control group in 24 hours ([1]; 5.0 μM): 60%
- Percent inhibition of PSA expression compared to the control group in 48 hours ([1]; 5.0 μM): 80%
- PSA expression ([1]; time course): reduced PSA and TMPRSS2 expression in the cells relative to the control set at the 24 hr and 48 hr time points
- Percent inhibition of TMPRSS2 expression in LNCaP cells cultured in CSS + DHT medium (TMPRSS2 mRNA [2]; 0.04 μM): 6%
- Percent inhibition of TMPRSS2 expression in LNCaP cells cultured in CSS + DHT medium (TMPRSS2 mRNA [2]; 0.2 μM): 11%
- Percent inhibition of TMPRSS2 expression in LNCaP cells cultured in CSS + DHT medium (TMPRSS2 mRNA [2]; 1 μM): 26%
- Percent inhibition of TMPRSS2 expression in LNCaP cells cultured in CSS + DHT medium (TMPRSS2 mRNA [2]; 5.0 μM): 64%
- Percent inhibition of TMPRSS2 expression in LNCaP cells cultured in complete medium (TMPRSS2 mRNA [2]; 0.04 μM): 0%
- Percent inhibition of TMPRSS2 expression in LNCaP cells cultured in complete medium (TMPRSS2 mRNA [2]; 0.2 μM): 25%
- Percent inhibition of TMPRSS2 expression in LNCaP cells cultured in complete medium (TMPRSS2 mRNA [2]; 1 μM): 50%
- Percent inhibition of TMPRSS2 expression in LNCaP cells cultured in complete medium (TMPRSS2 mRNA [2]; 5.0 μM): 51%
- cleaved PARP levels (western blot) (cleaved PARP): increased in a dose-dependent manner
- Proliferation (% untreated control) (C4-2B cells; CSS + DHT medium, 0.04 μM): 111 % untreated control
- Proliferation (% untreated control) (C4-2B cells; CSS + DHT medium, 0.2 μM): 75 % untreated control
- Proliferation (% untreated control) (C4-2B cells; CSS + DHT medium, 1 μM): 49 % untreated control
- Proliferation (% untreated control) (C4-2B cells; CSS + DHT medium, 5.0 μM): 40 % untreated control
- Proliferation (% untreated control) (C4-2B cells; complete medium, 0.04 μM): 93 % untreated control
- Proliferation (% untreated control) (C4-2B cells; complete medium, 0.2 μM): 50 % untreated control
- Proliferation (% untreated control) (C4-2B cells; complete medium, 1 μM): 50 % untreated control
- Proliferation (% untreated control) (C4-2B cells; complete medium, 5.0 μM): 41 % untreated control
- proliferation of C4-2B cells (C4-2B cells; complete medium or CSS+1 nM DHT): reduced proliferation of the cells in a dose dependent compared to the control
- Percent inhibition of TMPRSS2 expression (TMPRSS2 mRNA [3]; CSS + DHT medium, 1.34 nM): 0%
- Percent inhibition of TMPRSS2 expression (TMPRSS2 mRNA [3]; CSS + DHT medium, 4.0 nM): 21%
- Percent inhibition of TMPRSS2 expression (TMPRSS2 mRNA [3]; CSS + DHT medium, 13.4 nM): 49%
- Percent inhibition of TMPRSS2 expression (TMPRSS2 mRNA [3]; CSS + DHT medium, 40 nM): 57%
- Percent inhibition of TMPRSS2 expression (TMPRSS2 mRNA [3]; complete medium, 1.34 nM): 0%
- Percent inhibition of TMPRSS2 expression (TMPRSS2 mRNA [3]; complete medium, 4.0 nM): 0%
- Percent inhibition of TMPRSS2 expression (TMPRSS2 mRNA [3]; complete medium, 13.4 nM): 0%
- Percent inhibition of TMPRSS2 expression (TMPRSS2 mRNA [3]; complete medium, 40 nM): 4%
- Percent inhibition of TMPRSS2 expression (TMPRSS2 mRNA [4]; CSS + DHT medium, 1.34 nM): 39%
- Percent inhibition of TMPRSS2 expression (TMPRSS2 mRNA [4]; CSS + DHT medium, 4.0 nM): 50%
- Percent inhibition of TMPRSS2 expression (TMPRSS2 mRNA [4]; CSS + DHT medium, 13.4 nM): 59%
- Percent inhibition of TMPRSS2 expression (TMPRSS2 mRNA [4]; complete medium, 1.34 nM): 7%
- Percent inhibition of TMPRSS2 expression (TMPRSS2 mRNA [4]; complete medium, 4.0 nM): 3%
- Percent inhibition of TMPRSS2 expression (TMPRSS2 mRNA [4]; complete medium, 13.4 nM): 19%
- Percent inhibition of TMPRSS2 expression (TMPRSS2 mRNA [4]; complete medium, 40 nM): 32%
- Percent inhibition of PSA expression (PSA mRNA; CSS + DHT medium, 1.34 nM): 0%
- Percent inhibition of PSA expression (PSA mRNA; CSS + DHT medium, 4.0 nM): 35%
- Percent inhibition of PSA expression (PSA mRNA; CSS + DHT medium, 13.4 nM): 69%
- Percent inhibition of PSA expression (PSA mRNA; CSS + DHT medium, 40 nM): 73%
- Percent inhibition of PSA expression (PSA mRNA; complete medium, 1.34 nM): 2%
- Percent inhibition of PSA expression (PSA mRNA; complete medium, 4.0 nM): 24%
- Percent inhibition of PSA expression (PSA mRNA; complete medium, 13.4 nM): 35%
- Percent inhibition of PSA expression (PSA mRNA; complete medium, 40 nM): 46%
- Percent inhibition of TMPRSS2 expression (TMPRSS2 mRNA [5]; CSS + DHT medium, 0.04 μM): 0%
- Percent inhibition of TMPRSS2 expression (TMPRSS2 mRNA [5]; CSS + DHT medium, 0.2 μM): 34%
- Percent inhibition of TMPRSS2 expression (TMPRSS2 mRNA [5]; CSS + DHT medium, 1 μM): 60%
- Percent inhibition of TMPRSS2 expression (TMPRSS2 mRNA [5]; CSS + DHT medium, 5.0 μM): 76%
- Percent inhibition of TMPRSS2 expression (TMPRSS2 mRNA [5]; complete medium, 0.04 μM): 46%
- Percent inhibition of TMPRSS2 expression (TMPRSS2 mRNA [5]; complete medium, 0.2 μM): 71%
- Percent inhibition of TMPRSS2 expression (TMPRSS2 mRNA [5]; complete medium, 1 μM): 72%
- Percent inhibition of TMPRSS2 expression (TMPRSS2 mRNA [5]; complete medium, 5.0 μM): 75%
